The source made the active and inactive calls. The rule behind the calls is not given here.
Legend:
NCI-H460 [1] = assay: Induction of apoptosis in human NCI-H460 cells assessed as necrotic cells at 30 uM incubated for 24 hrs by Annexin V-FITC/PI staining based flow cytometric analysis (reference value: 0.68 %); format: functional
A549 [2] = assay: Antiproliferative activity against human A549 cells assessed as reduction in cell viability incubated for 48 hrs by CCK8 assay; format: functional, cell-based; details: A549, 48 h
NCI-H460 [3] = assay: Cell cycle arrest in human NCI-H460 cells assessed as downregulation of cyclin D1 expression at 10 to 30 uM by Western blot analysis; format: functional, cell-based; details: dose 10-30 µM
NCI-H460 [4] = assay: Antiproliferative activity against human NCI-H460 cells assessed as reduction in cell viability incubated for 48 hrs by CCK8 assay; format: functional, cell-based; details: NCI-H460, 48 h
NCI-H460 [5] = assay: Inhibition of Akt/mTOR signaling pathway in human NCI-H460 cells assessed as decrease in phosphorylated 4EBP1 expression in presence of temsirolimus by Western blot analysis; format: cell-based
A549 [6] = assay: Induction of autophagy in human A549 cells assessed as increase in Atg5 expression at 10 to 30 uM incubated for 24 hrs by Western blot analysis; format: functional, cell-based; details: dose 10-30 µM
NCI-H460 [7] = assay: Induction of apoptosis in human NCI-H460 cells assessed as viable cells at 10 uM incubated for 24 hrs by Annexin V-FITC/PI staining based flow cytometric analysis (reference value: 91.95 %); format: functional; details: read-out: Activity
A549 [8] = assay: Cell cycle arrest in human A549 cells assessed as downregulation of CDK4 expression at 10 to 30 uM by Western blot analysis; format: functional, cell-based; details: dose 10-30 µM
A549 [9] = assay: Inhibition of Akt/mTOR signalling pathway in human A549 cells assessed as decrease in phosphorylated 4EBP1 expression by Western blot analysis; format: cell-based; details: dose 10-30 µM
NCI-H460 [10] = assay: Induction of autophagy in human NCI-H460 cells assessed as increase in fluorescence intensity of anti-LC3 incubated for 48 hrs by immunofluorescence staining based analysis; format: functional, cell-based; details: dose 10-30 µM
NCI-H460 [11] = assay: Inhibition of Akt/mTOR signaling pathway in human NCI-H460 cells assessed as decrease in phosphorylated PRAS40 expression in presence of temsirolimus by Western blot analysis; format: cell-based
A549 [12] = assay: Inhibition of Akt/mTOR signalling pathway in human A549 cells assessed as decrease in phosphorylated Akt expression by Western blot analysis; format: cell-based; details: dose 10-30 µM
NCI-H460 [13] = assay: Induction of apoptosis in human NCI-H460 cells assessed as late apoptotic cells at 30 uM incubated for 24 hrs by Annexin V-FITC/PI staining based flow cytometric analysis (reference value: 4.15 %); format: functional
A549 [14] = assay: Inhibition of Akt/mTOR signalling pathway in human A549 cells assessed as decrease in phosphorylated PRAS40 expression by Western blot analysis; format: cell-based; details: dose 10-30 µM
A549 [15] = assay: Inhibition of Akt/mTOR signaling pathway in human A549 cells assessed as decrease in phosphorylated PRAS40 expression in presence of temsirolimus by Western blot analysis; format: cell-based
NCI-H460 [16] = assay: Induction of autophagy in human NCI-H460 cells assessed as increase in LC3-II expression at 10 to 30 uM incubated for 24 hrs by Western blot analysis; format: functional, cell-based; details: dose 10-30 µM
NCI-H460 [17] = assay: Inhibition of Akt/mTOR signalling pathway in human NCI-H460 cells assessed as decrease in phosphorylated 4EBP1 expression by Western blot analysis; format: cell-based; details: dose 10-30 µM
NCI-H460 [18] = assay: Induction of apoptosis in human NCI-H460 cells assessed as viable cells at 30 uM incubated for 24 hrs by Annexin V-FITC/PI staining based flow cytometric analysis (reference value: 91.95 %); format: functional; details: read-out: Activity
NCI-H460 [19] = assay: Induction of apoptosis in human NCI-H460 cells assessed as upregulation of Bax expression at 10 to 30 uM by Western blot analysis; format: functional, cell-based; details: dose 10-30 µM
A549 [20] = assay: Induction of apoptosis in human A549 cells assessed as viable cells at 10 uM incubated for 24 hrs by Annexin V-FITC/PI staining based flow cytometric analysis (reference value: 96.29 %); format: functional; details: read-out: Activity
BGC-823 = assay: Antiproliferative activity against human BGC-823 cells assessed as inhibition of cell proliferation at 3 to 300 uM incubated for 48 hrs by CCK8 assay; format: functional, cell-based; details: dose 3-300 µM
A549 [21] = assay: Induction of apoptosis in human A549 cells assessed as decrease in Bcl2 expression at 10 to 30 uM by Western blot analysis; format: functional, cell-based; details: dose 10-30 µM
A549 [22] = assay: Inhibition of Akt/mTOR signaling pathway in human A549 cells assessed as decrease in phosphorylated 4EBP1 expression in presence of temsirolimus by Western blot analysis; format: cell-based
A549 [23] = assay: Cell cycle arrest in human A549 cells assessed as accumulation of cells at G1 phase at 30 uM incubated for 24 hrs by PI staining based flow cytometric analysis (reference value: 56.42 +/- 1.36 %); format: functional
NCI-H460 [24] = assay: Induction of apoptosis in human NCI-H460 cells assessed as early apoptotic cells at 30 uM incubated for 24 hrs by Annexin V-FITC/PI staining based flow cytometric analysis (reference value: 3.22 %); format: functional
NCI-H460 [25] = assay: Induction of apoptosis in human NCI-H460 cells assessed as decrease in Bcl2 expression at 10 to 30 uM by Western blot analysis; format: functional, cell-based; details: dose 10-30 µM
[26] = test system: Gefitinib-resistant A549/G cell; assay: Inhibition of Akt/mTOR signaling pathway in human Gefitinib-resistant A549/G cell assessed as decrease in mTOR expression in presence of gefitinib by Western blot analysis; format: cell-based
A549 [27] = assay: Inhibition of Akt/mTOR signaling pathway in human A549 cells assessed as decrease in mTOR expression in presence of temsirolimus by Western blot analysis; format: cell-based
NCI-H460 [28] = assay: Inhibition of Akt/mTOR signalling pathway in human NCI-H460 cells assessed as decrease in c-myc expression by Western blot analysis; format: cell-based; details: dose 10-30 µM
A549 [29] = assay: Antiproliferative activity against human A549 cells assessed as inhibition of cell proliferation in presence of temsirolimus by CCK8 assay; format: functional, cell-based
NCI-H460 [30] = assay: Inhibition of Akt/mTOR signalling pathway in human NCI-H460 cells assessed as decrease in phosphorylated Akt expression by Western blot analysis; format: cell-based; details: dose 10-30 µM

For N#C[Se]CCCNC(=O)c1cccnc1, the Activity (NCI-H460 [1]) was 5.22%, the IC50 (A549 [2]) was 15.4 µM and the Activity (NCI-H460 [3]) was “Active; G1 Phase Cell Cycle Arrest Observed”. The IC50 (NCI-H460 [4]) was 17.4 µM, the inhibition (NCI-H460 [5]) was “Active” and the Activity (A549 [6]) was “Active”. The viability at 10 µM (NCI-H460 [7]) was 81.5%, the Activity (A549 [8]) was “Active; G1 Phase Cell Cycle Arrest Observed” and the inhibition (A549 [9]) was “Dose-dependent-effect; Inhibitory Ability Of Compound Is Comparable To Temsirolimus”. For the same compound, the Activity (NCI-H460 [10]) was “Dose-dependent-effect”, the inhibition (NCI-H460 [11]) was “Active” and the inhibition (A549 [12]) was “Dose-dependent-effect; Inhibitory Ability Of Compound Is Comparable To Temsirolimus”. The Activity (NCI-H460 [13]) was 13.81%, the inhibition (A549 [14]) was “Dose-dependent-effect; Inhibitory Ability Of Compound Is Comparable To Temsirolimus” and the inhibition (A549 [15]) was “Active”. For the same compound, the Activity (NCI-H460 [16]) was “Active”, the inhibition (NCI-H460 [17]) was “Dose-dependent-effect; Inhibitory Ability Of Compound Is Comparable To Temsirolimus” and the viability at 30 µM (NCI-H460 [18]) was 74.7%. For the same compound, the Activity (NCI-H460 [19]) was “Active”, the viability at 10 µM (A549 [20]) was 84.8% and the Activity (BGC-823) was “inactive”. For the same compound, the Activity (A549 [21]) was “Active”, the inhibition (A549 [22]) was “Active” and the Activity (A549 [23]) was 78.51%. The Activity (NCI-H460 [24]) was 6.3%, the Activity (NCI-H460 [25]) was “Active” and the inhibition [26] was “Active”. For the same compound, the inhibition (A549 [27]) was “Active”, the inhibition (NCI-H460 [28]) was “Dose-dependent-effect; Inhibitory Ability Of Compound Is Comparable To Temsirolimus” and the Activity (A549 [29]) was “Active”. For the same compound, the inhibition (NCI-H460 [30]) was “Dose-dependent-effect; Inhibitory Ability Of Compound Is Comparable To Temsirolimus”.
